Experimental data taken from patent publication US9708259B2 (Hoffmann-La Roche Inc., priority 2013, dated 2017).
Positions count from the first letter of the chain named.

Experiments:
[1] = cited from earlier work
APP processing = conditions: cited from earlier work
human M1 = target: T1, human M1 (Homo sapiens, UniProt P11229); assay: M1 PAM assay (FLIPR intracellular calcium), human M1; assay type: cell-based; conditions: CHO human M1 cells, FLIPR Ca2+, with EC20 of acetylcholine; first value of the cell; read-out: hM1 EC50
T1 construct: expressed in transfected cells; host or cells: CHO cells
T1 sequence (P11229 1-460): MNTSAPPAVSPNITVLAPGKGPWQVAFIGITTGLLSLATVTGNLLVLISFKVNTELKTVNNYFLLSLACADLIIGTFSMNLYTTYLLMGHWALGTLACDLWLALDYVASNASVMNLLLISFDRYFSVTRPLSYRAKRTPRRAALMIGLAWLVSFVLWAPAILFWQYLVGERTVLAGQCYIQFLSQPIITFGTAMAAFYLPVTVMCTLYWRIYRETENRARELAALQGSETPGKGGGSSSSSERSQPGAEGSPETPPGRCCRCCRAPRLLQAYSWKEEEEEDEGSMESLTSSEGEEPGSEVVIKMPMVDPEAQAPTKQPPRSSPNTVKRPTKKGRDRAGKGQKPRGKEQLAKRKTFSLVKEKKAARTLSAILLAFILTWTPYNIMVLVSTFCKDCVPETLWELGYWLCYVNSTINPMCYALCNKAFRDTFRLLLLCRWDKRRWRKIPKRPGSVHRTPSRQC
Summary of the method: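 CHO cells expressing M1, Fluo-4AM-loaded, in HEPES/probenecid HBSS pH 7.4, 1% DMSO final. Compounds pre-incubated 2 min for agonist activity versus 30 nM acetylcholine control. For PAM activity, acetylcholine EC20 added after the 2 min pre-incubation, then 2 min more before FLIPR intracellular Ca2+ read.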

ratM1 = target: T2, ratM1 (Rattus norvegicus, UniProt P08482); assay: M1 PAM assay (FLIPR intracellular calcium), rat M1; assay type: cell-based; conditions: rat M1, FLIPR Ca2+; second value of the cell; read-out: ratM1 EC50
T2 construct: expressed in transfected cells; host or cells: CHO cells (stated generally for the assay, not specifically for rat M1)
T2 sequence (P08482 1-460): T1 sequence (P11229 1-460) with A5V, T254S, P309S, R320K, A337G, I413V

| SMILES | EC50 (human M1) | EC50 (ratM1) | other results |
| --- | --- | --- | --- |
| CCCCCCOc1nsnc1C1=CCCN(C)C1 [Xanomeline] |  |  | cognitive scores and psychotic-like behaviors in patients with Alzheimer's disease ([1]; clinical studies, patients with Alzheimer's disease (AD)): improved cognitive scores and reduced psychotic-like behaviors; efficacy on symptoms in schizophrenic patients ([1]; clinical studies, schizophrenic patients): robust efficacy on positive, negative and cognitive symptoms; adverse effects (sweating, salivation, gastrointestinal distress, bradycardia) ([1]; clinical, attributed to insufficient M1 subtype selectivity): always associated with adverse effects |
| Cc1cc(NC(=O)CS(=O)(=O)c2cn(Cc3cc(Br)ccc3F)c3ccccc23)no1 [ML169] |  |  | non-amyloidogenic APP processing (APP processing): promote non-amyloidogenic APP processing |
| CNC(=O)c1ccc(Cn2cc(C(=O)N[C@H]3CCCC[C@@H]3O)c3c(F)cccc32)cc1F [Example 88, 4-fluoro-1-(3-fluoro-4-(methylcarbamoyl)benzyl)-N-((1S,2S)-2-hydroxycyclohexyl)-1H-indole-3-carboxamide] | 14.3 nM | 15.8 nM |  |
| Cc1cn(-c2ccc(Cn3cc(C(=O)N[C@H]4CCOC[C@@H]4O)c4c(F)cccc43)cc2)cn1 (single isomer, unassigned) [Example 51, 4-fluoro-N-((3R,4S) or (3S,4R)-3-hydroxytetrahydro-2H-pyran-4-yl)-1-(4-(4-methyl-1H-imidazol-1-yl)benzyl)-1H-indole-3-carboxamide] | 12.3 nM | 11.2 nM |  |
| Cn1cc(-c2ccc(Cn3cc(CC(=O)N[C@H]4CCOC[C@@H]4O)c4c(F)cccc43)c(F)c2)cn1 [Example 92, 2-[4-Fluoro-1-[[2-fluoro-4-(1-methylpyrazol-4-yl)phenyl]methyl]indol-3-yl]-N-[(3R,4S)-3-hydroxyoxan-4-yl]acetamide] | 35 nM | 57 nM |  |
| Cn1cc(-c2ccc(Cn3cc(C(=O)NC4CCOCC4)c4c(F)ccc(F)c43)cc2)cn1 [Example 95, 4,7-difluoro-1-(4-(1-methyl-1H-pyrazol-4-yl)benzyl)-N-(tetrahydro-2H-pyran-4-yl)-1H-indole-3-carboxamide] | 27 nM | 50 nM |  |
| Cn1cc(-c2ccc(Cn3cc(C(=O)N[C@H]4CCCC(F)(F)[C@@H]4O)c4c(F)cccc43)cc2)cn1 [Example 101, N-((1S,2R)-3,3-difluoro-2-hydroxycyclohexyl)-4-fluoro-1-(4-(1-methyl-1H-pyrazol-4-yl)benzyl)-1H-indole-3-carboxamide] | 14 nM | 42 nM |  |
| CNC(=O)c1ccc(Cn2cc(C(=O)NC3CCOCC3C)c3c(F)cccc32)cc1 (centres unmarked) [Example 126, 4-fluoro-1-[[4-(methylcarbamoyl)phenyl]methyl]-N-(3-methyloxan-4-yl)indole-3-carboxamide] | 19 nM | 51 nM |  |
| CO[C@H]1COC[C@@H]1NC(=O)c1cn(Cc2ccc(-c3cnn(C)c3)cc2)c2cccc(F)c12 [Example 8, 4-fluoro-N-[(3S,4R)-4-methoxyoxolan-3-yl]-1-[[4-(1-methylpyrazol-4-yl)phenyl]methyl]indole-3-carboxamide] | 278 nM | 427 nM |  |
| Cn1cc(-c2ccc(Cn3cc(C(=O)N[C@H]4CCCC[C@@H]4O)c4c(F)ccc(C5CC5)c43)cc2)cn1 [Example 105, 7-cyclopropyl-4-fluoro-N-((1S,2S)-2-hydroxycyclohexyl)-1-(4-(1-methyl-1H-pyrazol-4-yl)benzyl)-1H-indole-3-carboxamide] | 288 nM | 627 nM |  |
| Cn1cc(-c2ccc(Cn3cc(C(=O)NC4CCOCC4)c4c(F)cccc43)c(F)c2)cn1 [Example 21, 4-fluoro-1-(2-fluoro-4-(1-methyl-1H-pyrazol-4-yl)benzyl)-N-(tetrahydro-2H-pyran-4-yl)-1H-indole-3-carboxamide] | 60.5 nM | 175 nM |  |
| CNC(=O)c1ccc(Cn2cc(C(=O)NC3CCOCC3)c3c(F)cccc32)cn1 [Example 147, 4-fluoro-1-((6-(methylcarbamoyl)pyridin-3-yl)methyl)-N-(tetrahydro-2H-pyran-4-yl)-1H-indole-3-carboxamide] | 197 nM | 323 nM |  |
| CNC(=O)c1ccc(Cn2cc(C(=O)NC3CCSCC3)c3c(F)cccc32)cc1 [Example 124, 4-fluoro-1-[[4-(methylcarbamoyl)phenyl]methyl]-N-(thian-4-yl)indole-3-carboxamide] | 11 nM | 24 nM |  |
